Target: T1, human adenosine-A3 receptor (Homo sapiens, UniProt P0DMS8)
T1 construct: expressed in transfected cells; membrane preparations
T1 sequence (P0DMS8 1-318): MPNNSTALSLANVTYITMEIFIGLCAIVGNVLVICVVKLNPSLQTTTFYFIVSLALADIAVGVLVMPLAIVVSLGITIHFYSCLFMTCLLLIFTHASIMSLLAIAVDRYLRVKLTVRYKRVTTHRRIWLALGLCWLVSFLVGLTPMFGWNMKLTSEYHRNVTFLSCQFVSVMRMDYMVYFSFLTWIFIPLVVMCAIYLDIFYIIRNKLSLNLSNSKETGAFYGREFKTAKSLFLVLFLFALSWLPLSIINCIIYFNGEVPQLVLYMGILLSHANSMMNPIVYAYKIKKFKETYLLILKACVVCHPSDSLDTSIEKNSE
Experiment: Receptor binding to human adenosine-A3 receptors ([125I]-AB-MECA displacement, HEK 293 membranes)
Description: Receptor Binding to Human Adenosine-A3 Receptors
Affinity of the compounds for human adenosine-A3 receptors was determined using the receptor binding assay described by C. A. Salvatore et al.: Molecular cloning and characterization of the human A3 adenosine receptor, Proc. Natl. Acad. Sci. USA, 90, 10365-10369, 1993. Briefly, membrane preparations were obtained from human recombinant (HEK 293) cells in which the human adenosine-A3 receptor was stably expressed. Membranes were incubated at 22° C. for 90 minutes with [^125l]-AB-MECA in the absence or presence of testcompounds in a concentration range from 10 μM down to 0.1 nM, diluted in a suitable buffer. Separation of bound radioactivity from free was done by filtration through Packard GF/B glass fiber filters with several washings with ice-cold buffer using a Packard cell harvester. Bound radioactivity was measured with a scintillation counter (Topcount, Packard) using a liquid scintillation cocktail (Microscint 0, Packard). Measured radioactivity was plotted against the concentration of the displacing test compound and displacement curves were calculated by four-parameter logistic regression, resulting in IC50 values, i.e. that concentration of displacing compound by which 50% of the radioligand is displaced. […]

SMILES: C[C@@H](Nc1nc(Cl)nc(Nc2ccc3c(c2)OCO3)n1)[C@@H](O)c1ccccc1 [formula (9), (1S,2R)-2-{[4-chloro-6-(3,4-methylenedioxy-phenylamino)-[1,3,5]triazin-2-yl]-amino}-1-phenyl-propan-1-ol]
- Ki ([125I]-AB-MECA, membranes of HEK 293 cells expressing human A3, 22° C., 90 minutes, read-out: affinity for human adenosine-A3 receptors pKi (converted)): 1 nM
- affinity for human adenosine-A3 receptors (in words) (binding assay, result stated in words): highly active
